Reference: patent US8765698B2, “Methods and products for reawakening retrocyclins” (priority 2010, dated 2014)

Assays:
[1] = test system: HIV-1 BaL; assay: Luciferase-based infection assay to determine anti-HIV-1 activity; format: cell-based; conditions: for HIV-1 infection of aminoglycoside-treated TZM-bl cells: HIV-1 BaL, 24 hr, compared to untreated cells
Method: Treatments were then removed and the infection was quantified by measuring luciferase using Bright-Glo reagents (Promega, Madison, Wis.) in an LMax luminometer (Molecular Devices, Sunnyvale, Calif.). Cytotoxicity and metabolic activity of cells were verified by a tetrazolium-based MTT assay (R& D systems, Minneapolis, Minn.) performed on identically treated cells.
For antibody-mediated neutralization experiments, TZM-bl cells (4000 cells/well; 96 well plate) were cultured in D10^− medium and treated with vehicle (PBS) or 10 μg/ml of tobramycin for 24 hr. The next day, cells were treated with either rabbit preimmune or anti-retrocyclin serum diluted 1:10 in D10^− medium containing tobramycin or RC-100 (2.5 μg/ml). Two hours later the cells were infected with HIV-1 BaL (p24 of 5 ng/ml) at 37° C. for 24 hr. Viral infection was quantified as described above.

[2] = test system: premature termination codon of retrocyclin cDNA; assay: Aminoglycoside mediated read-through of termination codon, luciferase fusion construct in HOS-CD4-CCR5 cells; format: cell-based, human; conditions: 10 μg/ml, 24 hr, luciferase normalized to renilla
Method: Wildtype and mutant retrocyclin cDNAs were subcloned into phCMV-luc-FSR vector to create unrescued RC-101 and rescued RC-101 C-terminal luciferase fusion constructs, and verified by sequencing. HOS-CD4-CCR5 cells were cultured in antibiotic free growth medium (D10^−) and co-transfected with 0.5 μg of unrescued or rescued (positive control) RC-101 plasmids along with 0.1 μg of phRL-CMV vector (transfection control containing renilla luciferase gene) using Effectene transfection reagent (Qiagen, Valencia, Calif.). The next day cells were treated for 24 hr with the appropriate aminoglycoside (40 μg/ml amikacin or 5 μg/ml gentamicin or 10 μg/ml tobramycin) or D10^− for control cells. Read-through was determined by measuring luciferase and renilla levels using a dual luciferase assay (Promega Corp., Madison, Wis.).

[3] = test system: Cervicovaginal tissues (EpiVaginal); assay: LDH cytotoxicity assay on organotypic cervicovaginal tissue; format: cell-based, human; conditions: 10 μg/ml, 24 hr
Method: (§1) Cervicovaginal tissues were treated topically with 100 μl of PBS (control; n=4) or with 10 μg/ml of tobramycin (n=8) for 24 hr. Viability was assessed on control and tobramycin-treated tissue (n=1) using MTT assay kit (MatTek Corp., Ashland, Mass.). Cytotoxicity was measured by quantifying lactate dehydrogenase (LDH) activity in the underlying medium collected 24 hr after treatment with PBS or tobramycin by using CytoTox96 non-radioactive cytotoxicity assay kit (Promega Corp., Madison, Wis.).

[4] = test system: Cervicovaginal tissues (EpiVaginal); assay: MTT assay on organotypic cervicovaginal tissue; format: cell-based, human; conditions: one tissue, data not shown
Method: as §1

[5] = test system: retrocyclin polypeptides; assay: Retrocyclin expression in cervicovaginal tissues, RP-HPLC, immuno-dotblot and immunostaining; format: cell-based, human
[6] = test system: retrocyclin peptides; assay: Immunostaining of aminoglycoside-treated TZM-bl cells with anti-retrocyclin antibody; format: cell-based; conditions: 10 μg/ml, 24 hr
From the text: The coverslips were then processed for immunofluorescence staining with anti-retrocyclin (rabbit anti-RC-101 antibody) or pre-immune serum as described above.

| Compound | HIV-1 infection of aminoglycoside-treated TZM-bl cells [1] | infection, preimmune serum compared to anti-retrocyclin antibodies ([1]; TZM-bl cells, tobramycin 10 μg/ml for 24 hr, then serum, HIV-1) | increase in read-through [2] | tissue cytotoxicity (LDH activity in underlying medium) [3] | metabolic activity of tissue (MTT assay) [4] | amount of retrocyclin polypeptides expressed in treated cervicovaginal tissues ([5]; 10 μg/ml tobramycin, estimated by densitometry of immuno-dotblot) | anti-retrocyclin immunohistochemical staining of cervicovaginal tissue ([5]; applied apically, 24 hr) | anti-retrocyclin immunostaining of TZM-bl cells [6] |
| --- | --- | --- | --- | --- | --- | --- | --- | --- |
| gentamicin | inhibited HIV-1 infection | – | – | – | – | – | – | – |
| NC[C@H]1O[C@H](O[C@H]2[C@H](O)[C@@H](O[C@H]3O[C@H](CO)[C@@H](O)[C@H](N)[C@H]3O)[C@H](N)C[C@@H]2N)[C@H](N)C[C@@H]1O [tobramycin] | inhibited HIV-1 infection | modest yet significant reduction in infection | 26 fold | not cytotoxic | did not affect the metabolic activity adversely | approximately 1.6 μg/tissue | brightly stained cells | brightly stained cells |
